Source: US10450356B2, “PRAME derived peptides and immunogenic compositions comprising these” (Academisch Ziekenhuis Leiden H.O.D.N. LUMC, priority 2007, dated 2019)

Biological target: T1, 20S proteasomes purified from a B-LCL cell line (immunoproteasomes) (Homo sapiens, UniProt P28062+P28065+P40306)
T1 construct: 20S proteasomes were purified from a B-LCL cell line; endogenous in cells; purified after Groettrup et al. 1995
Experiment: In vitro proteasome mediated cleavage analysis
Format: biochemical
Design: key to Intact in fragment / Intact Fragment: intact epitope found in digestion fragments: (+), present; (-), not present; key to Processing C-term: generation by proteasome-mediated digestion of fragments containing the correct C-terminus: (++) fragments present for >5%; (+) present for <5%; (-) no fragments containing the C-term. were found
Conditions: for Processing C-term: generation by proteasome-mediated digestion of fragments containing the correct C-terminus: 1 h digestion; for Intact Fragment: intact epitope found in digestion fragments: after 1 h digestion; for C-term. generation: generation of C-terminus of the epitope after 1 h digestion; for Intact in fragment: intact epitope found in digestion fragments after 1 h digestion
Protocol: 20S proteasomes were purified from a B-LCL cell line as described by Groettrup et al. (J. Biol. Chem. 270:23808-23815; 1995). This cell type is known to contain immunoproteasomes. High LMP2 and 7 content was confirmed by 2-D immuno-blotting. To assess kinetics, digestions were performed with different incubation periods. Peptides (27 mers, 20 μg) were incubated with 1 μg of purified proteasome at 37° C. for 1 h, 4 h and 24 h in 300 μl proteasome digestion buffer as described (Eggers, et al. 1995. J. Exp. Med. 182:1865). Trifluoroacetic acid was added to stop the digestion and samples were stored at −20° C. before mass spectrometric analysis.
Electrospray ionization mass spectrometry was performed on a hybrid quadrupole time-of-flight mass spectrometer, a Q-TOF (Micromass), equipped with an on-line nanoelectrospray interface with an approximate flow rate of 250 nL/min. Injections were done with a dedicated micro/nano HPLC autosampler, the FAMOS (LC Packings). Digestion solutions were diluted five times in water-methanol-acetic acid (95:5:1, v/v/v), and trapped on the precolumn (MCA-300-05-C8; LC Packings) in water-methanol-acetic acid (95:5:1, v/v/v). Washing of the precolumn was done for 3 min to remove the buffers present in the digests. Subsequently, the trapped analytes were eluted with a steep gradient going from 70% B to 90% B in 10 min, with a flow of 250 nl/min (A: water-methanol-acetic acid (95:5:1, v/v/v); B: water-methanol-acetic acid (10:90:1, v/v/v)). This low elution rate allows for a few additional MS/MS experiments if necessary during the same elution. Mass spectra were recorded from mass 50-2000 Da every second. The resolution allows direct determination of the monoisotopic mass, also from multiple charged ions. The peaks in the mass spectrum were searched in the digested precursor peptide using the Biolynx/proteins software (Micromass). The intensity of the peaks in the mass spectra was used to establish the relative amounts of peptides generated by proteasome digestion.

| Processing C-term: generation by proteasome-mediated digestion of fragments containing the correct C-terminus | Intact Fragment: intact epitope found in digestion fragments | C-term. generation | Intact in fragment | SMILES |
| --- | --- | --- | --- | --- |
| - | - |  |  | CC(C)C[C@H](NC(=O)[C@H](CO)NC(=O)[C@H](CCC(N)=O)NC(=O)CNC(=O)[C@H](C)NC(=O)[C@H](CC(C)C)NC(=O)[C@H](CCC(=O)O)NC(=O)[C@@H](NC(=O)[C@H](CC(C)C)NC(=O)[C@@H](N)CCCNC(=N)N)C(C)C)C(=O)O |
| - | - |  |  | CC(C)C[C@H](NC(=O)[C@@H](N)CC(C)C)C(=O)N[C@@H](C)C(=O)N[C@@H](CCC(N)=O)C(=O)N[C@@H](CCC(=O)O)C(=O)N[C@H](C(=O)N[C@@H](CCCNC(=N)N)C(=O)N1CCC[C@H]1C(=O)N[C@@H](CCCNC(=N)N)C(=O)N[C@@H](CCCNC(=N)N)C(=O)O)C(C)C |
| + ((+) present for <5%) | - |  |  | CC(C)C[C@H](NC(=O)[C@H](Cc1ccccc1)NC(=O)[C@H](Cc1ccccc1)NC(=O)[C@H](CC(C)C)NC(=O)[C@H](CO)NC(=O)[C@H](CC(=O)O)NC(=O)[C@@H](NC(=O)[C@@H](N)Cc1ccc(O)cc1)C(C)C)C(=O)N[C@@H](CCCNC(=N)N)C(=O)O |
| - | - |  |  | CC(C)C[C@H](NC(=O)[C@H](CCC(N)=O)NC(=O)[C@H](CC(=O)O)NC(=O)[C@H](CC(C)C)NC(=O)[C@H](CCCNC(=N)N)NC(=O)CNC(=O)[C@H](CCCNC(=N)N)NC(=O)[C@H](CC(C)C)NC(=O)[C@H](Cc1ccccc1)NC(=O)[C@@H](N)Cc1ccccc1)C(=O)O |
| - | - |  |  | CC(C)C[C@H](NC(=O)[C@H](CCC(=O)O)NC(=O)[C@H](CC(=O)O)NC(=O)[C@H](CS)NC(=O)[C@H](C)NC(=O)CNC(=O)[C@H](CCC(=O)O)NC(=O)[C@H](CCCCN)NC(=O)[C@H](CC(C)C)NC(=O)[C@@H](N)Cc1ccccc1)C(=O)O |
| - | - |  |  | CC[C@H](C)[C@H](NC(=O)[C@H](CC(C)C)NC(=O)[C@H](Cc1c[nH]cn1)NC(=O)[C@H](CCC(N)=O)NC(=O)[C@H](CC(C)C)NC(=O)[C@H](CC(C)C)NC(=O)[C@H](CO)NC(=O)[C@H](CCC(N)=O)NC(=O)[C@H](CC(C)C)NC(=O)[C@H](C)N)C(=O)O |
| - | - |  |  | CC[C@H](C)[C@H](NC(=O)[C@H](CC(C)C)NC(=O)[C@@H](N)Cc1ccc(O)cc1)C(=O)N[C@@H](CCC(=O)O)C(=O)N[C@@H](CCCCN)C(=O)N[C@H](C(=O)N[C@@H](CCCCN)C(=O)N[C@@H](CCCNC(=N)N)C(=O)N[C@@H](CCCCN)C(=O)O)C(C)C |
| - | - |  |  | CC(C)C[C@H](NC(=O)[C@H](CC(C)C)NC(=O)[C@H](CO)NC(=O)[C@H](CCC(N)=O)NC(=O)CNC(=O)[C@H](C)NC(=O)[C@H](CC(C)C)NC(=O)[C@@H](N)CCC(=O)O)C(=O)N[C@@H](CCCCN)C(=O)O |
| - | - |  |  | CC[C@H](C)[C@H](NC(=O)[C@H](CO)NC(=O)CNC(=O)[C@H](Cc1c[nH]c2ccccc12)NC(=O)[C@H](CC(C)C)NC(=O)[C@@H](N)CCCNC(=N)N)C(=O)N[C@@H](CCC(N)=O)C(=O)N[C@@H](CO)C(=O)N[C@@H](CCCNC(=N)N)C(=O)O |
| + ((+) present for <5%) | + | + (low abundant (+) present for <5%) | + | CC(C)C[C@H](NC(=O)[C@@H](NC(=O)[C@H](CCC(N)=O)NC(=O)[C@H](CO)NC(=O)[C@H](Cc1c[nH]cn1)NC(=O)[C@H](CCCNC(=N)N)NC(=O)CNC(=O)[C@H](CC(=O)O)NC(=O)[C@H](Cc1ccccc1)NC(=O)[C@H](C)N)[C@@H](C)O)C(=O)O |
| - | - |  |  | CC(C)C[C@H](NC(=O)[C@@H](NC(=O)[C@H](CC(N)=O)NC(=O)[C@H](CCCCN)NC(=O)[C@H](CCCCN)NC(=O)[C@H](CCCNC(=N)N)NC(=O)[C@H](CCCCN)NC(=O)[C@@H](NC(=O)[C@@H](N)CCCCN)C(C)C)C(C)C)C(=O)N[C@@H](CCCNC(=N)N)C(=O)O |
| ++ ((++) fragments present for >5%) |  | ++ (abundant (++) present for >5%) |  | CC(C)C[C@H](NC(=O)[C@H](CO)NC(=O)[C@H](CC(C)C)NC(=O)[C@H](Cc1ccccc1)NC(=O)[C@H](CCC(N)=O)NC(=O)[C@H](CO)NC(=O)[C@@H](NC(=O)[C@H](Cc1ccccc1)NC(=O)[C@@H](N)CCC(N)=O)[C@@H](C)O)C(=O)O |

Continued, molecule first:

| SMILES | Processing C-term: generation by proteasome-mediated digestion of fragments containing the correct C-terminus | Intact Fragment: intact epitope found in digestion fragments | C-term. generation | Intact in fragment |
| --- | --- | --- | --- | --- |
| C[C@@H](O)[C@H](NC(=O)[C@H](CCCNC(=N)N)NC(=O)[C@H](CC(=O)O)NC(=O)CNC(=O)[C@H](CS)NC(=O)[C@H](Cc1c[nH]cn1)NC(=O)[C@@H]1CCCN1C(=O)[C@@H](N)CS)C(=O)N[C@@H](Cc1ccccc1)C(=O)N[C@@H](Cc1ccc(O)cc1)C(=O)O | - | - |  |  |
| CC(C)C[C@H](NC(=O)[C@@H](NC(=O)[C@H](Cc1c[nH]cn1)NC(=O)[C@@H](NC(=O)[C@H](CC(C)C)NC(=O)[C@H](CC(N)=O)NC(=O)[C@H](CO)NC(=O)[C@H](CC(C)C)NC(=O)CN)[C@@H](C)O)C(C)C)C(=O)O | + ((+) present for <5%) | - |  |  |
| CC(C)C[C@H](NC(=O)[C@@H](NC(=O)[C@H](Cc1c[nH]cn1)NC(=O)[C@@H](NC(=O)[C@H](CC(C)C)NC(=O)[C@@H](N)CC(N)=O)[C@@H](C)O)C(C)C)C(=O)N[C@@H](Cc1ccc(O)cc1)C(=O)N1CCC[C@H]1C(=O)N[C@H](C(=O)O)C(C)C | - | - |  |  |
| CC(C)C[C@H](NC(=O)CNC(=O)[C@H](CC(=O)O)NC(=O)[C@H](CC(C)C)NC(=O)[C@@H](N)C(C)C)C(=O)N[C@@H](CC(=O)O)C(=O)N[C@H](C(=O)N[C@@H](CC(C)C)C(=O)N[C@@H](CC(C)C)C(=O)N[C@@H](C)C(=O)O)C(C)C | - | - |  |  |
| CC(C)C[C@H](NC(=O)[C@@H]1CCCN1C(=O)[C@H](CCC(=O)O)NC(=O)[C@@H]1CCCN1C(=O)[C@H](CO)NC(=O)[C@@H](NC(=O)[C@H](CC(=O)O)NC(=O)[C@@H](NC(=O)[C@@H](N)CC(C)C)[C@@H](C)O)C(C)C)C(=O)N[C@@H](CCC(N)=O)C(=O)N[C@@H](C)C(=O)O | + ((+) present for <5%) | + | + (low abundant (+) present for <5%) | + |
| CC(C)C[C@H](NC(=O)CN)C(=O)N[C@@H](CC(=O)O)C(=O)N[C@H](C(=O)N[C@@H](CC(C)C)C(=O)N[C@@H](CC(C)C)C(=O)N[C@@H](C)C(=O)N[C@@H](CCC(N)=O)C(=O)N[C@@H](CCC(=O)O)C(=O)N[C@H](C(=O)O)C(C)C)C(C)C | - | - |  |  |
| CC(C)C[C@H](NC(=O)[C@H](Cc1ccc(O)cc1)NC(=O)[C@H](C)NC(=O)[C@H](CC(C)C)NC(=O)[C@H](CCCNC(=N)N)NC(=O)[C@H](CCC(=O)O)NC(=O)[C@H](CC(C)C)NC(=O)[C@H](Cc1c[nH]cn1)NC(=O)[C@H](CC(C)C)NC(=O)[C@@H](N)[C@@H](C)O)C(=O)O | - | - |  |  |
| CC[C@H](C)[C@H](N)C(=O)N[C@@H](Cc1ccccc1)C(=O)N[C@@H](C)C(=O)N[C@@H](CCSC)C(=O)N1CCC[C@H]1C(=O)N[C@@H](CCSC)C(=O)N[C@@H](CCC(N)=O)C(=O)N[C@@H](CC(=O)O)C(=O)N[C@H](C(=O)O)[C@@H](C)CC | - | - |  |  |
